Experimental data from publication PMC4147338, “Host defense peptides for treatment of colorectal carcinoma – a comparative in vitro and in vivo analysis” (Oncotarget, 2014).

What was measured:
HROC18 cells = assay: Apoptosis/necrosis assay, YO-PRO-1/PI flow cytometry; type: cell-based, human; conditions: HROC18, 24h, background cell death subtracted
Procedure: (§1) Figure 5 Apoptosis/necrosis assay and Western blot analysis (A, B) HROC18 and HROC24 cells were exposed to increasing HDP concentrations for a period of 24 hours. Tumor cells were stained with YO-PRO-1 for detecting early and late apoptotic tumor cells. Prior to flow cytometric analysis, PI was added to detect necrotic cells, as well. (A) Representative dot plots showing HDP-treated HROC24 cells at a concentration of 5 μM. Lower right quadrant: early apoptotic cells; upper right quadrant: late apoptotic cells; upper left quadrant: necrotic cells. (B) For cell death quantification, values of background cell death (=untreated controls) were subtracted from values of HDP-treated cells. Left panel: HROC24 cell; right panel: HROC18 cells. (C, E) Representative western blot results showing HDP-treated HROC24 cells (20 μg of total protein per lane). (D, F) Quantitative analysis of BAX and HSP90 expression in HDP-treated cells was done as described in material & methods. Expression levels of untreated cells were set to be =1 and x-fold increases of HDP-exposed cells were calculated. […] Values are given as mean ± SD.
(§2) Cell death was quantified by YO-PRO-1 (Invitrogen) and PI double staining. Selected tumor cells (HROC24 and HROC18, 1 × 10^4 cells/well) were seeded in 24-well plates and incubated overnight. Thereafter, peptides were added in increasing concentrations (ranging from 0.25 μM – 12.5 μM). Untreated cells served as living control. Following a 24-hour incubation period, supernatants were collected; cells were trypsinized and washed in PBS. Cells were stained with YO-PRO-1 (final concentration: 0.2 μM) for 20 min at room temperature. Prior to flow cytometric analysis, PI was added at a final concentration of 100 μg/ml. For cell death quantification, values of background cell death (=untreated controls) were subtracted from values of HDP-treated cells.

[1] = test system: HDP-responsive cell lines (e.g. HROC24); assay: Western blot analysis of Bax and HSP90 expression; type: cell-based, human; conditions: normalized to β-actin, untreated =1
Procedure: Figure 5 Apoptosis/necrosis assay and Western blot analysis (A, B) HROC18 and HROC24 cells were exposed to increasing HDP concentrations for a period of 24 hours. Tumor cells were stained with YO-PRO-1 for detecting early and late apoptotic tumor cells. Prior to flow cytometric analysis, PI was added to detect necrotic cells, as well. (A) Representative dot plots showing HDP-treated HROC24 cells at a concentration of 5 μM. Lower right quadrant: early apoptotic cells; upper right quadrant: late apoptotic cells; upper left quadrant: necrotic cells. (B) For cell death quantification, values of background cell death (=untreated controls) were subtracted from values of HDP-treated cells. […] (D, F) Quantitative analysis of BAX and HSP90 expression in HDP-treated cells was done as described in material & methods. Expression levels of untreated cells were set to be =1 and x-fold increases of HDP-exposed cells were calculated. […]
Cellular protein extracts were obtained from HDP-treated and control cells following incubation with lysis buffer (1 M Tris, pH 7.5, 5 M sodium chloride, 0.25 M ethylenediaminetetraacetic acid, 10% (v/v) triton-x 100, 4% (v:v) sodium azide, 0.1 M phenylmethane-sulfonylfluoride, protease inhibitor cocktail (Roche, Mannheim, Germany)) on ice for 30 min. […] Signal integrated intensities were quantified applying the Odyssey® software version 3.16. […]

[2] = test system: whole blood cells of healthy donors; assay: Hemolysis assay, hemoglobin release; type: cell-based, human; conditions: whole blood of healthy donors (n=6), 0.25-12.5 μM, 120 min incubation (text: 24h), absorption 540 nm, 1% SDS = maximum lysis
Procedure: Figure 6 Hemolysis and lymphotoxicity assays (A) Hemolytic activity of HDPs was determined by hemoglobin release from whole blood cells after 120 min incubation. Negative controls were left untreated whereas positive controls (=maximum lysis) were treated with 1% SDS. Hemolytic activity was quantified as described in the material and methods section. (B) PBLs were incubated in the presence of increasing HDP concentrations for a period of 24 hours. Viability was analyzed using Calcein-AM and quantified in comparison to untreated controls, which were set to be =1. […] Experiments were performed in triplicates. Values are given as the mean x-fold increase ± SD.
Hemolytic activity of HDPs was determined by hemoglobin release from whole blood cells after 120 min incubation. Briefly, whole blood of healthy donors (n=6) was seeded in 96-well plates and supplemented with HDPs at given concentrations (ranging from: 0.25 μM – 12.5 μM). Negative controls were left untreated and positive controls (=maximum lysis) were treated with 1% SDS. Following the incubation period, cell-free supernatants were transferred into a new 96-well plate and absorption was measured on a plate reader at 540 nm (reference wave length: 690 nm). Hemolytic activity was quantified according to the following formula: % hemolysis=((OD540nm sample−OD540nm buffer)/OD540nm max−OD540nm buffer)*100

[3] = FRET spectroscopy probe dilution assay, membrane intercalation; type: binding; conditions: NBD-PE/rhodamine-PE, peptide 0.2-0.8 μM, 20 mM HEPES 150 mM NaCl pH 7.4, 37°C
Procedure: FRET spectroscopy served as a sensitive tool to detect lipid dependence of the membrane interaction of antimicrobial peptides. For this, all peptides were added to liposomes consisting of zwitterionic PC alone, of a mixture of PC and of negatively charged PS, as well as of pure PS (Figure 1). All lipid vesicles were doped with donor and acceptor dyes, peptides were added, and the emission intensities of both dyes were monitored over time. An increase of the fluorescence intensity of the donor (IDonor) and a simultaneous decrease of the fluorescence intensity of the acceptor dye (IAcceptor), i.e. a reduced FRET efficacy, indicated an increase in the overall mean distance between labeled phospholipids, and corresponded to an insertion of peptides into the lipid bilayer. For clarity, the IDonor/IAcceptor ratio is shown (Figure 1).
Figure 1 FRET spectroscopy. (A-C) Binding to and insertion of peptide C7A-D21K into phospholipid membranes (A) C7A-D21K was added at time point 50 s to liposomes (10 μM) consisting of pure PC, (B) a 90:10 molar mixture of PC:PS, and (C) of pure PS, each doubly doped with the fluorescently labeled FRET pair NBD-PE (donor) and rhodamine-PE (acceptor). Intercalation was monitored by measuring donor and acceptor fluorescence emission intensities. For better visualization only the quotient (IDonor/IAcceptor) is shown. Addition of the peptide solvent alone had no effect (dotted grey line). Peptide concentrations used: 0.2 μM (dotted black line, only in C), 0.4 μM (solid grey line, only in C), and 0.8 μM (solid black line). (D-F) Binding to and insertion of peptides at different concentrations into phospholipid membranes. (A) Peptides were added to liposomes consisting of pure PC, (B) a 90:10 molar mixture of PC:PS, and (C) of pure PS, each doubly doped with the fluorescently labeled phospholipid FRET pair NBD-PE (donor) and rhodamine-PE (acceptor). Intercalation was monitored by measuring donor and acceptor fluorescence intensities. The relative increase of the IDonor/IAcceptor ratio 250 s after peptide addition is shown (Increase of IDonor/IAcceptor (%) = (IDonor/IAcceptor (peptide) - IDonor/IAcceptor (control))*100). Peptide concentrations used: 0.2 μM (open bars), 0.4 μM (grey bars), and 0.8 μM (black bars).
Intercalation of peptides into liposome membranes was determined by FRET spectroscopy applied as a probe dilution assay. Liposomes were prepared by dissolving appropriate lipid mixtures (pure PC, a 90:10 molar mixture of PC:PS, as well as pure PS, each doped with 1% of the donor dye NBD-PE and 1% of the acceptor dye rhodamine-PE) in chloroform and drying them under a gentle stream of nitrogen. The resulting lipid film was dispersed in 20 mM HEPES, 150 mM NaCl, pH 7.4, sonicated for 30 min and subjected to 3-4 temperature cycles from 4 to 60°C with an incubation period of 30 min at each step. Lipid dispersions were stored at 4°C overnight before use. For the assay, donor fluorescence (NBD) was excited at 470 nm, and donor (NBD, ID at 531 nm) as well as acceptor (rhodamine, IA at 593 nm) emission intensities were monitored over time. An increase of the ratio of the donor fluorescence intensity to that of the acceptor fluorescence intensity (IDonor/I^Acceptor) was interpreted as a membrane intercalation event. This ratio depends on the Förster efficiency, therefore a rising value means that the mean distance separation of donor and acceptor dyes is raising. The assay was performed at 37°C.

HCT116 cells = assay: Calcein-AM cell viability staining, 24h; type: cell-based, human; conditions: HCT116, 24h, 0.25-12.5 μM
Procedure: (§3) Figure 4 HDP-mediated cytotoxicity towards tumor cells Quantitative analysis of direct cytotoxicity towards tumor cells following a 24h incubation period with increasing HDP concentrations. Viability was assessed using Calcein-AM staining. Remaining viable tumor cells were quantified in comparison to untreated controls, which were set to be =1. […] Values are given as the mean x-fold increase ± SD. *p<0.05 vs. NK11; **p<0.01 vs. NK11.
(§4) This assay is based on Calcein-acetoxymethylester (Calcein-AM; Invitrogen, Darmstadt, Germany) staining to detect viable cells within a culture. Tumor and normal (PBL) cells (1-2 × 10^4 cells/well in triplicates) were seeded in 96-well plates and incubated overnight. Thereafter, peptides were added in increasing concentrations (ranging from 0.25 μM – 12.5 μM). Untreated cells served as living cell control. Medium was removed after 1h or 24h, respectively. Calcein-AM ([…]) was added and incubated for 30 min (37°C, 5% CO2). Analysis was performed on a fluorescence multi-well plate reader (Tecan Infinite® M200, Crailsheim, Germany) at an excitation wavelength of 485 nm (emission 535 nm). For estimation of cell viability, the relative fluorescence intensities of Calcein-AM-stained non-treated cells (=live control) were set to be 1, and fluorescence intensities of samples were calculated. Data of at least three independent experiments each performed in […] are given.

HROC24 cells [4] = assay: Calcein-AM cell viability staining, 24h; type: cell-based, human; conditions: HROC24, 24h, 0.25-12.5 μM
Procedure: as §3, §4

HROC24 cells [5] = assay: Apoptosis/necrosis assay, YO-PRO-1/PI flow cytometry; type: cell-based, human
Procedure: as §1, §2

CC[C@H](C)[C@H](NC(=O)CN)C(=O)NCC(=O)N[C@@H](C)C(=O)N[C@H](C(=O)N[C@@H](CC(C)C)C(=O)N[C@@H](CCCCN)C(=O)N[C@H](C(=O)N[C@@H](CC(C)C)C(=O)N[C@H](C(=O)N[C@H](C(=O)NCC(=O)N[C@@H](CC(C)C)C(=O)N1CCC[C@H]1C(=O)N[C@@H](C)C(=O)N[C@@H](CC(C)C)C(=O)N[C@H](C(=O)N[C@@H](CO)C(=O)N[C@@H](Cc1c[nH]c2ccccc12)C(=O)N[C@H](C(=O)N[C@@H](CCCCN)C(=O)N[C@@H](CCCNC(=N)N)C(=O)N[C@@H](CCCCN)C(=O)N[C@@H](CCCNC(=N)N)C(=O)N[C@@H](CCC(N)=O)C(=O)N[C@@H](CCC(N)=O)C(N)=O)[C@@H](C)CC)[C@@H](C)CC)[C@@H](C)O)[C@@H](C)O)C(C)C)C(C)C [Melittin]
total killing (HROC18 cells): 71% | HSP90 protein expression [1]: dose-dependently induced | hemolysis [2]: below 20%

KILRGVAKKIMRTFLRR ILTGKK [Peptide C7A-Δ, C7A shortened by deletion of four amino acid residues]
Membrane intercalation (increase of IDonor/IAcceptor) ([3]; PC:PS 90:10 liposomes 10 μM): slightly impaired | Membrane intercalation (increase of IDonor/IAcceptor) ([3]; pure PS liposomes 10 μM): pronounced | Lytic activity towards tumor cells (HCT116 cells): as effective as the reference compound Mellitin | Lytic activity towards tumor cells (HROC24 cells [4]): as effective as the reference compound Mellitin | total killing (HROC18 cells): up to 60% | Levels of viable HROC24 cells (HROC24 cells [5]; 24h, higher concentrations): 17% | Tumor killing compared with Melittin (HROC24 cells [5]; HROC24, 24h): as effective in tumor killing as Melittin
